Assays:
[1] = Relaxivity of Gd(DOTAla) metallopeptides and reference agents (T1 inversion recovery, 37° C.); assay type: physicochemical
Method: Main numbers are given per Gd, numbers in parentheses are per molecule values. All numbers were determined at 37° C. using an inversion recovery sequence at concentrations ranging from 0.05 to 0.6 mM/Gd. Table 4 in Example 2 further expands the data of Table 1.
Per Gd relaxivities were determined by measuring T1 at 37° C. using 20, 60, 200, 400 and 500 MHz spectrometers. Relaxivities for MS-325 (with and without the presence of HSA) as a reference compound with a long τR and [Gd(HP-DO3A)(H2O)] as a reference for very short τR were also measured, and all the relaxivity data is tabulated in Table 4, together with results obtained from literature for the compounds with similar estimated τR. […] Additional rigidity through cyclization seems to provide only minor relaxivity increase for the dimeric and trimeric systems (Gd2C2 and Gd3C3).
Measurement of relaxivity. Longitudinal relaxation times T1, were measured on Bruker Minispecs mq20 (0.47 T) and mq60 (1.41 T), a Bruker Bioscan horizontal bore 4.7 T, 9.4 T and 11.7 T Varian NMR spectrometers. T1 was measured by using an inversion recovery method with 10 inversion time values ranging from 0.05×T1 to 5×T1. Relaxivity was calculated from a linear plot of 3 or 4 different concentrations (ranging from 0.01 to 0.5 mM, depending on amount of compound isolated) versus the corresponding inverse relaxation times. All samples were measured at 37° C. using either the internal temperature control of the instrument (0.47, 1.41, 9.4 and 11.7 T) or a warm air blower (4.7 T). MS-325/HSA was prepared in a 4.5% w/v solution of HSA (0.66 mM) in PBS. The MS-325 concentration (in presence of HSA) ranged from 0.05 to 0.15 mM.

[2] = hydration state; literature (superscript refs); cited from earlier work
[3] = 310 K, cited from earlier work; for r1 0.47 T 310K: literature (superscript refs); for r1 1.41 T 310K: cell says 1.5 T, literature (ref 17)
[4] = cited from earlier work
[5] = literature (refs 37, 38), cited from earlier work
[6] = Kinetic inertness: Zn(II) transmetallation in phosphate buffer, followed by 1/T1; assay type: physicochemical
Description: Kinetic inertness was also taken into account in the evaluation of potential probes. In this regard, [Gd(CyPic3A)(H2O)2]^− was challenged with 1 equiv. [ZnPO4]^− as a slurry in pH 7.0 phosphate buffer at 310 K (see below). Several clinically utilized Gd(III) complexes have been benchmarked relative to one another in this manner.^37 As Gd(III) replaced by Zn(II) precipitates from the solution as GdPO4, the relaxation rate 1/T1 decreases. In this method, the time required to reach 80% of the initial 1/T1 value was utilized as an index of kinetic inertness.
Modified conditions of Muller and co-workers were used for this experiment.^11,12 Solutions containing 2.5 mM [Gd(CyPic3A)(H2O)2]^− and 2.5 mM Zn(OTf)2 were combined in pH 7.0 phosphate buffer (50 mM) and placed in an incubator shaker set to 310 K. Progress of the transchelation was monitored via the decrease in 1/T1 with time. Prior to measurement, aliquots were placed in small glass inserts and centrifuged to bring all insoluble material to the bottom so as not to interfere with the measurement.

[7] = Ligand challenge, equilibrium constant Kcomp of MS-325 vs. L; assay type: physicochemical; details: calculated from literature thermodynamic data
Method: (§1) Equilibration of each solution was monitored by LC-MS. Relative distributions of [Gd(CyPic3A)(H2O)2]^− and CyPic3A were determined by integrating the corresponding absorbance traces at 280 nm. […] Kcomp values determined between [Gd(DTPA)(H2O)]^2− and various ligands were determined from conditional formation constants (Kcond)^4 values taken from the literature.^6-16 Direct comparisons were only made between Kcond values determined under identical conditions.

[8] = Zn(II) challenge of the Gd(III) complex of L; literature (ref 11); cited from earlier work
[9] = Ligand challenge, equilibrium constant Kcomp of [Gd(DTPA)(H2O)]2− vs. L; assay type: physicochemical; details: calculated from literature thermodynamic data
Method: As a means of assessing thermodynamic stability relative to other Gd(III)-complexes, [Gd(CyPic3A)(H2O)2]^− was challenged with DTPA in pH 7.4 25 mM Tris buffer. […] From this information it was possible to deduce equilibrium constants (Kcomp) for the competition reaction described in Equation 5,^31 where L=DTPA and L′=challenging chelator.
as §1

[10] = Relaxivity in the absence and presence of HSA (Example 3); assay type: physicochemical; details: for r1 (20 MHz), absence of HSA / r1 (60 MHz), absence of HSA: absence of HSA (first value of cell); for r1 (20 MHz), presence of HSA / r1 (60 MHz), presence of HSA: presence of HSA (second value of cell)
Method: ^1H and ^13C NMR spectra were recorded on a Varian 500 NMR system equipped with a 5 mm broadband probe. Longitudinal relaxation times, T1, were measured by using the inversion recovery method on Bruker Minispecs. mq20 (20 MHz) and mq60 (60 MHz). Purification via HPLC of intermediates toward Fmoc-DOTAla was performed using method A: Injection of crude mixture onto preparative HPLC on a Rainin, Dynamax (column: 250 mm Kromasil C18) by using A: 0.1% TFA in water, B: 0.1% TFA in MeCN, flow-rate 15 mL/min, 1 over 23 minutes. HPLC purity analysis (both UV and MS detection) was carried out on an Agilent 1100 system (column: Phenomenex Luna, C18(2) 100/2 mm) with UV detection at 220, 254 and 280 nm by using a method B: A gradient of A(0.1% formic acid in water) to 95% B(0.1% formic acid in MeCN), flow-rate 0.8 mL/min, 1 over 15 minutes.

HSA = HSA (Homo sapiens, UniProt P02768); assay: HSA binding by ultrafiltration and ICP-MS (Example 3); assay type: in vitro ADME; details: 0.1 mM compound, 4.5% (w/v) HSA, 37° C.
Method: In order to measure HSA binding of the complexes, a 0.1 mM solution (determined by ICP-MS) of the corresponding Gd complex in 4.5% w/v HSA was prepared and pipetted into a Ultrafree-MC Microcentrifuge Filter (NMWL 5,000 Da, PLCC, Millipore). The mixture is incubated at 37° C. for 10 minutes and subsequently centrifuged at 12,000 rpm for 15 minutes. Binding is determined by measurement of Gd content in the filtrate by ICP-MS.

Sequence of HSA (P02768 25-609): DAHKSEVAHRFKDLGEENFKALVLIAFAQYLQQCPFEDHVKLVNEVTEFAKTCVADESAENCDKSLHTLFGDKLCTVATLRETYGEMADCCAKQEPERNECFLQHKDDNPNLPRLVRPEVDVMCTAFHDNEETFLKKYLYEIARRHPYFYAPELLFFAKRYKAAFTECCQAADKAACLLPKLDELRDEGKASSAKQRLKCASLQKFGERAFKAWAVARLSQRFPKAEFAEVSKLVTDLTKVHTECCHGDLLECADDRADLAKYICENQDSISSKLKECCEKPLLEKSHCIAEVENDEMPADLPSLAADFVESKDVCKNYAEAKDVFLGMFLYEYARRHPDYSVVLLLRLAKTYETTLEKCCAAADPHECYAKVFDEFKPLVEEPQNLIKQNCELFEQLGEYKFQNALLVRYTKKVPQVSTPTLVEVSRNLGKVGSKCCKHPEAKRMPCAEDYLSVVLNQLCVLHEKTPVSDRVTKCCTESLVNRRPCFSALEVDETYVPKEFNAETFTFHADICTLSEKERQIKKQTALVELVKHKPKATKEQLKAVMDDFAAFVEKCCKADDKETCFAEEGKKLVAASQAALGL

| Compound | Kcomp MS-325 vs. L pH 4 [7] | Kcomp MS-325 vs. L pH 7.4 [7] | Kcomp [Gd(DTPA)(H2O)]^2- vs. L pH 4 [9] | Kcomp, [Gd(DTPA)(H2O)]^2- vs. L pH 7.4 [9] | r1 (20 MHz), absence of HSA [10] [mM⁻¹ s⁻¹] | r1 (20 MHz), presence of HSA [10] [mM⁻¹ s⁻¹] | r1 (60 MHz), absence of HSA [10] [mM⁻¹ s⁻¹] | r1 (60 MHz), presence of HSA [10] [mM⁻¹ s⁻¹] | % HSA binding (HSA) [%] | other results |
| --- | --- | --- | --- | --- | --- | --- | --- | --- | --- | --- |
| O=C([O-])CN(CCN(CC(=O)[O-])C[C@H](COP(=O)([O-])OC1CCC(c2ccccc2)(c2ccccc2)CC1)N(CC(=O)[O-])CC(=O)[O-])CC(=O)[O-].[Gd+3].[H+].[H+].[H+] [MS-325, gadofosveset] | – | – | – | – | – | – | – | – | – | Relaxivity per Gd, 200 MHz ([1]; 200 MHz): 5.7 mM⁻¹ s⁻¹; Relaxivity per Gd, 200 MHz, with HSA ([1]; 200 MHz, presence of 4.5% HSA): 5.0 mM⁻¹ s⁻¹; Relaxivity per Gd, 400 MHz ([1]; 400 MHz (9.4 T)): 4.8 mM⁻¹ s⁻¹; Relaxivity per Gd, 400 MHz, with HSA ([1]; 400 MHz, presence of 4.5% HSA): 4.1 mM⁻¹ s⁻¹; Relaxivity per Gd, 500 MHz ([1]; 500 MHz): 4.7 mM⁻¹ s⁻¹; Relaxivity per Gd, 500 MHz, with HSA ([1]; 500 MHz, presence of 4.5% HSA): 3.7 mM⁻¹ s⁻¹; q [2]: 1^18; r1 0.47 T 310K [3]: 5.8^17 mM^−1s^−1; r1 1.41 T 310K [3]: 5.2 (1.5 T)^17 mM^−1s^−1; Relaxivity per Gd, 20 MHz ([4]; 20 MHz, 37° C., literature data (footnotes a, b, d)): 6.8^d mM^−1 s^−1; Relaxivity per Gd, 20 MHz, with HSA ([4]; 20 MHz, 37° C., presence of 4.5% HSA, from ref 22): 42^d mM^−1 s^−1; Relaxivity per Gd, 60 MHz ([4]; 60 MHz, 37° C., literature data (footnotes a, b, d)): 5.4^d mM^−1 s^−1; Relaxivity per Gd, 60 MHz, with HSA ([4]; 60 MHz, 37° C., presence of 4.5% HSA, from ref 22): 23.8^d mM^−1 s^−1; peak molecular relaxivity ([4]; HSA-associated): above 40 mM^−1s^−1; increase in relaxivity once associated with human serum albumin (HSA) ([4]; at low fields): over 8 fold |
| Gd(DO3A-N-α-aminopropionate) [F] | – | – | – | – | – | – | – | – | – | ΔH^‡ ([5]; activation enthalpy of water exchange): 4.57 kcal/mol; ^310kex × 10^6 (s^−1) ([5]; water exchange rate at 310 K): 42 × 10^6 s^−1; ^310 TM (ns) ([5]; water residency time at 310 K (37° C.)): 24 ns |
| CNC(=O)CN(CCN(CCN(CC(=O)[O-])CC(=O)NC)CC(=O)[O-])CC(=O)[O-].[Gd+3] [[Gd(DTPA-BMA)(H2O)]] | – | – | – | – | – | – | – | – | – | q [2]: 1^16; r1 0.47 T 310K [3]: 3.5^17 mM^−1s^−1; r1 1.41 T 310K [3]: 3.3 (1.5 T)^17 mM^−1s^−1; time to 80% of the initial 1/T1 ([6]; 1 equiv. Zn(II), pH 7.0 phosphate buffer, 310 K): 124 min |
| O=C(O)CN(CCN(CC(=O)O)C[C@H](COP(=O)(O)OC1CCC(c2ccccc2)(c2ccccc2)CC1)N(CC(=O)O)CC(=O)O)CC(=O)O | 1 | 1 | 0.57^5 | 2.88^5 | – | – | – | – | – | Time to 80% r1 (min) [8]: 3800^11 min |
| O=C(O)CN1CCNCCN(CC(=O)O)CCN(CC(=O)O)CC1 [DO3A] | 0.00046^5,6 | 0.00017^5,6 | 0.00048^5,6 | 0.0005^5,6 | – | – | – | – | – | Time to 80% r1 (min) [8]: inert^11 |
| CC(O)CN1CCN(CC(=O)O)CCN(CC(=O)O)CCN(CC(=O)O)CC1 (centres unmarked) [HP-DO3A] | 0.16^5,6 | 0.07^5,6 | 0.22^6 | 0.19^6 | – | – | – | – | – | Time to 80% r1 (min) [8]: inert^11 |
| C[C@@H](NC(=O)C(CN1CCN(CC(=O)O)CCN(CC(=O)O)CCN(CC(=O)O)CC1)NC(=O)C(N)Cc1cc(I)c(O)c(I)c1)c1ccccc1 (stereo partly drawn) [Gd (13-S), 2,2′,2″-(10-(2-(2-amino-3-(4-hydroxy-3,5-diiodophenyl)propanamido)-3-oxo-3-(((R)-1-phenylethyl)amino)propyl)-1,4,7,10-tetraazacyclododecane-1,4,7-triyl)triacetic acid] | – | – | – | – | 7.1 | 18.5 | 6.1 | 10.9 | 39 | – |
| C[C@@H](C(=O)NC(CN1CCN(CC(=O)O)CCN(CC(=O)O)CCN(CC(=O)O)CC1)C(=O)N[C@@H](Cc1cc(I)c(O)c(I)c1)C(=O)O)c1ccccc1 (stereo partly drawn) [Gd (19), 2,2′,2″-(10-(3-(((S)-1-carboxy-2-(4-hydroxy-3,5-diiodophenyl)ethyl)amino)-3-oxo-2-((R)-2-phenylpropanamido)propyl)-1,4,7,10-tetraazacyclododecane-1,4,7-triyl)triacetic acid] | – | – | – | – | 6.0 | 30.7 | 6.4 | 21.8 | 69 | – |
| O=C(O)CN(CCN(CC(=O)O)CC(=O)O)CCN(CC(=O)O)CC(=O)O [DTPA] | 0.58^5 | 0.35^5 | 1 | 1 | – | – | – | – | – | Time to 80% r1 ([6]; Zn(II) challenge of the Gd(III) complex of L, this work): 383 min |
| COC(=O)CNC(=O)C(CN1CCN(CC(=O)O)CCN(CC(=O)O)CCN(CC(=O)O)CC1)NC(=O)C(N)Cc1cc(I)c(O)c(I)c1 (centres unmarked) [Gd (7), 2,2′,2″-(10-(2-(2-amino-3-(4-hydroxy-3,5-diiodophenyl)propanamido)-3-((2-methoxy-2-oxoethyl)amino)-3-oxopropyl)-1,4,7,10-tetraazacyclododecane-1,4,7-triyl)triacetic acid] | – | – | – | – | 4.7 | 7.05 | 3.9 | 6.9 | 6 | – |
| C[C@@H](NC(=O)C(CN1CCN(CC(=O)O)CCN(CC(=O)O)CCN(CC(=O)O)CC1)NC(=O)C(N)Cc1cc(I)c(O)c(I)c1)c1ccccc1 (stereo partly drawn) [Gd (13-R), 2,2′,2″-(10-(2-(2-amino-3-(4-hydroxy-3,5-diiodophenyl)propanamido)-3-oxo-3-(((R)-1-phenylethyl)amino)propyl)-1,4,7,10-tetraazacyclododecane-1,4,7-triyl)triacetic acid] | – | – | – | – | 6.6 | 18.4 | 6.4 | 11.4 | 36 | – |
